# Measurements taken from PubChem BioAssay AID330 (DTP/NCI, 2004).
# “And” between values parts separate entries of the source, which are not always exact repeats. Identical values can stand only once. Inconclusive results and toxic doses are left out.
# Tested on: P388 leukemia ip, CD2F1 mice, survival T/C
# Assay: NCI In Vivo Anticancer Drug Screen. Data for tumor model P388 Leukemia (intraperitoneal) in CD2F1 (CDF1) mice
# Conditions: endpoint: median survival time, higher = longer survival
# Method in brief: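 Mice carrying the transplanted tumor received test compound or vehicle. Survival was recorded in each group, and the value is the treated-group measurement divided by that of the vehicle-treated control group.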
# [1] = dose: 25.0 mg/kg/injection, schedule: Q01DX009 (ip), vehicle: saline with Tween-80
# [2] = dose: 50.0 mg/kg/injection, schedule: Q01DX009 (ip), vehicle: saline with Tween-80
# [3] = dose: 100.0 mg/kg/injection, schedule: Q01DX009 (ip), vehicle: saline with Tween-80
# [4] = dose: 200.0 mg/kg/injection, schedule: Q01DX009 (ip), vehicle: saline with Tween-80
# [5] = dose: 50.0 mg/kg/injection, schedule: Q01DX005 (ip), vehicle: saline with Tween-80
# [6] = dose: 100.0 mg/kg/injection, schedule: Q01DX005 (ip), vehicle: saline with Tween-80
# [7] = dose: 200.0 mg/kg/injection, schedule: Q01DX005 (ip), vehicle: saline with Tween-80
# [8] = dose: 50.0 mg/kg/injection, schedule: Q01DX009 (ip), vehicle: Klucel (hydroxypropylcellulose) (HPC)
# [9] = dose: 100.0 mg/kg/injection, schedule: Q01DX009 (ip), vehicle: Klucel (hydroxypropylcellulose) (HPC)
# [10] = dose: 200.0 mg/kg/injection, schedule: Q01DX009 (ip), vehicle: Klucel (hydroxypropylcellulose) (HPC)
# [11] = dose: 12.5 mg/kg/injection, schedule: Q01DX009 (ip), vehicle: Klucel (hydroxypropylcellulose) (HPC)
# [12] = dose: 25.0 mg/kg/injection, schedule: Q01DX009 (ip), vehicle: Klucel (hydroxypropylcellulose) (HPC)
# [13] = dose: 50.0 mg/kg/injection, schedule: Q01DX005 (ip), vehicle: Klucel (hydroxypropylcellulose) (HPC)
# [14] = dose: 100.0 mg/kg/injection, schedule: Q01DX005 (ip), vehicle: Klucel (hydroxypropylcellulose) (HPC)
# [15] = dose: 200.0 mg/kg/injection, schedule: Q01DX005 (ip), vehicle: Klucel (hydroxypropylcellulose) (HPC)
structure (smiles),measurement,setting,value
N#Cc1ccc(NN=O)cc1,T/C,"dose: 3.12 mg/kg/injection, schedule: Q01DX009 (ip), vehicle: water",100 % of control
same,T/C,"dose: 6.25 mg/kg/injection, schedule: Q01DX009 (ip), vehicle: water",105 % of control
same,T/C,"dose: 12.5 mg/kg/injection, schedule: Q01DX009 (ip), vehicle: water",105 % of control
same,T/C,"dose: 25.0 mg/kg/injection, schedule: Q01DX009 (ip), vehicle: water",117 % of control
same,T/C,"dose: 100.0 mg/kg/injection, schedule: Q01DX009 (ip), vehicle: water",117 % of control
O=C1c2cscc2C(=O)c2cscc21,T/C,"dose: 12.5 mg/kg/injection, schedule: Q01DX009 (ip), vehicle: saline with Tween-80",98 % of control
same,T/C,[1],100 % of control
same,T/C,[2],96 % of control
same,T/C,[3],94 % of control
Cc1cc(=O)[nH]c2[nH][nH]c(=O)c12,T/C,[1],93 % of control
same,T/C,[2],93 % of control
same,T/C,[3],105 % of control
same,T/C,[4],90 % of control
NC1CC(=O)N(Cc2ccccc2)C1=O (configuration not stated),T/C,"dose: 50.0 mg/kg/injection, schedule: Q01DX005 (ip), vehicle: saline",97 % of control
same,T/C,"dose: 100.0 mg/kg/injection, schedule: Q01DX005 (ip), vehicle: saline",91 % of control
same,T/C,"dose: 200.0 mg/kg/injection, schedule: Q01DX005 (ip), vehicle: saline",93 % of control
COc1cc(OC)c(C/C=C/c2ccccc2)cc1O,T/C,"dose: 2.5 mg/kg/injection, schedule: Q01DX009 (ip), vehicle: saline with Tween-80",100 % of control
same,T/C,"dose: 5.0 mg/kg/injection, schedule: Q01DX009 (ip), vehicle: saline with Tween-80",100 % of control
same,T/C,"dose: 10.0 mg/kg/injection, schedule: Q01DX009 (ip), vehicle: saline with Tween-80",102 % of control
COC(=O)/C=C/c1cccn1C(=O)c1c(Cl)cccc1Cl,T/C,[5],97 % of control
same,T/C,[6],98 % of control
same,T/C,[7],87 % of control
O=c1nc(Oc2ccc(Cl)cc2Cl)oc2cc(Cl)ccc12,T/C,"dose: 60.0 mg/kg/injection, schedule: Q01DX005 (ip), vehicle: saline with Tween-80",94 % of control
same,T/C,"dose: 120.0 mg/kg/injection, schedule: Q01DX005 (ip), vehicle: saline with Tween-80",94 % of control
O=C(CCl)Nc1ccc(Cl)cc1C(=O)c1ccccc1,T/C,[2],107 % of control
same,T/C,[3],98 % of control
same,T/C,[4],104 % of control
CCOC(=O)CCS(=O)c1ccccc1 (configuration not stated),T/C,[8],114 % of control
same,T/C,[9],109 % of control
same,T/C,[10],104 % of control
O=C(O)COc1ccc(F)c(F)c1,T/C,"dose: 60.0 mg/kg/injection, schedule: Q01DX005 (ip), vehicle: Klucel (hydroxypropylcellulose) (HPC)",101 % of control and 104 % of control
same,T/C,"dose: 120.0 mg/kg/injection, schedule: Q01DX005 (ip), vehicle: Klucel (hydroxypropylcellulose) (HPC)",106 % of control and 94 % of control
same,T/C,"dose: 240.0 mg/kg/injection, schedule: Q01DX005 (ip), vehicle: Klucel (hydroxypropylcellulose) (HPC)",100 % of control and 86 % of control
CC1=CC(=Nc2ccc(N(CCCl)CCCl)cc2)C(C)=C(C)C1=O,T/C,"dose: 100.0 mg/kg/injection, schedule: Q01DX001 (ip), vehicle: Klucel (hydroxypropylcellulose) (HPC)",116 % of control and 123 % of control
COc1cc2cc[n+](C)c(Cc3ccccc3)c2cc1OC,T/C,"dose: 3.12 mg/kg/injection, schedule: Q01DX009 (ip), vehicle: Klucel (hydroxypropylcellulose) (HPC)",111 % of control
same,T/C,"dose: 6.25 mg/kg/injection, schedule: Q01DX009 (ip), vehicle: Klucel (hydroxypropylcellulose) (HPC)",111 % of control
same,T/C,[11],114 % of control
same,T/C,[12],121 % of control
same,T/C,[8],160 % of control
S=C(SSC(=S)C1CCCC1=NC1CCCCC1)C1CCCC1=NC1CCCCC1 (configuration not stated),T/C,[8],101 % of control
same,T/C,[9],108 % of control
same,T/C,[10],108 % of control
CSN(C)C(=O)Nc1cc(Cl)ccc1Cl,T/C,"dose: 100.0 mg/kg/injection, schedule: Q04DX003 (ip), vehicle: saline",107 % of control
same,T/C,"dose: 200.0 mg/kg/injection, schedule: Q04DX003 (ip), vehicle: saline",92 % of control
same,T/C,"dose: 400.0 mg/kg/injection, schedule: Q04DX003 (ip), vehicle: saline",92 % of control
CCOC(=O)C(Cc1ccccc1Cl)(Cc1ccccc1Cl)c1ccccc1,T/C,"dose: 266.0 mg/kg/injection, schedule: Q01DX009 (ip), vehicle: saline with Tween-80",98 % of control
same,T/C,"dose: 400.0 mg/kg/injection, schedule: Q01DX009 (ip), vehicle: saline with Tween-80",111 % of control
same,T/C,"dose: 600.0 mg/kg/injection, schedule: Q01DX009 (ip), vehicle: saline with Tween-80",96 % of control
CC(=O)[C-](C)C(C)=O.CC(=O)[C-](C)C(C)=O.CC(=O)[C-](C)C(C)=O.[Ru+3],T/C,[5],100 % of control
same,T/C,[6],113 % of control
same,T/C,[7],90 % of control
Oc1c(Cl)c(Cl)c(O)c(Cl)c1Cl,T/C,"dose: 6.25 mg/kg/injection, schedule: Q04DX003 (ip), vehicle: Klucel (hydroxypropylcellulose) (HPC)",98 % of control
same,T/C,"dose: 12.5 mg/kg/injection, schedule: Q04DX003 (ip), vehicle: Klucel (hydroxypropylcellulose) (HPC)",99 % of control
same,T/C,"dose: 25.0 mg/kg/injection, schedule: Q04DX003 (ip), vehicle: Klucel (hydroxypropylcellulose) (HPC)",98 % of control
CCOC(=O)C1=C(C)/C(=C/c2[n-]c(Cl)c(C)c2C(=O)OCC)N=C1C.CCOC(=O)C1=C(C)/C(=C/c2[n-]c(Cl)c(C)c2C(=O)OCC)N=C1C.[Co+3],T/C,[13],88 % of control
same,T/C,[14],98 % of control
same,T/C,[15],108 % of control
C=CCOc1c2c(cc3ccc(=O)oc13)CC=CO2,T/C,[11],95 % of control
same,T/C,[12],105 % of control
same,T/C,[8],98 % of control and 100 % of control
same,T/C,[9],112 % of control
CCOC(=O)N(CCF)N=O,T/C,"dose: 3.12 mg/kg/injection, schedule: Q01DX001 (ip), vehicle: saline with Tween-80",108 % of control and 96 % of control
same,T/C,"dose: 6.25 mg/kg/injection, schedule: Q01DX001 (ip), vehicle: saline with Tween-80",108 % of control and 114 % of control
same,T/C,"dose: 12.5 mg/kg/injection, schedule: Q01DX001 (ip), vehicle: saline with Tween-80",124 % of control
same,T/C,"dose: 25.0 mg/kg/injection, schedule: Q01DX001 (ip), vehicle: saline with Tween-80",117 % of control
C[C@H]1C(=O)O[C@@H]2CCN3CC=C(COC(=O)[C@](C)(O)[C@@]1(C)O)[C@H]23,T/C,"dose: 3.13 mg/kg/injection, schedule: Q01DX010 (ip), vehicle: saline",95 % of control
same,T/C,"dose: 6.25 mg/kg/injection, schedule: Q01DX010 (ip), vehicle: saline",100 % of control
same,T/C,"dose: 12.5 mg/kg/injection, schedule: Q01DX010 (ip), vehicle: saline",104 % of control
same,T/C,"dose: 25.0 mg/kg/injection, schedule: Q01DX010 (ip), vehicle: saline",100 % of control
CCCc1nc(N)[nH]c(=O)c1I,T/C,[13],88 % of control
same,T/C,[14],95 % of control
same,T/C,[15],106 % of control
CCOC(=O)C1(O)C(=O)ON=C1c1ccccc1 (configuration not stated),T/C,[13],100 % of control
same,T/C,[14],104 % of control
same,T/C,[15],107 % of control
Cc1c(/C=C/c2oc3ccc(C(=N)N)cc3c2C)oc2ccc(C(=N)N)cc12,T/C,"dose: 100.0 mg/kg/injection, schedule: Q04DX002 (ip), vehicle: saline",124 % of control
COc1ccc(C)c2c(NCCCCCCCCNc3c4ccccc4nc4c(OC)ccc(C)c34)c3ccccc3nc12,T/C,"dose: 2.5 mg/kg/injection, schedule: Q01DX009 (ip), vehicle: water",100 % of control
same,T/C,"dose: 5.0 mg/kg/injection, schedule: Q01DX009 (ip), vehicle: water",113 % of control
same,T/C,"dose: 10.0 mg/kg/injection, schedule: Q01DX009 (ip), vehicle: water",105 % of control
CCCCCCCC/C=C\CCCCCCCCN1CN=C(N)N(C#N)C1,T/C,"dose: 100.0 mg/kg/injection, schedule: Q04DX003 (ip), vehicle: saline with Tween-80",101 % of control
same,T/C,"dose: 200.0 mg/kg/injection, schedule: Q04DX003 (ip), vehicle: saline with Tween-80",100 % of control
same,T/C,"dose: 400.0 mg/kg/injection, schedule: Q04DX003 (ip), vehicle: saline with Tween-80",103 % of control
CCN(CC)CCCC(C)Nc1cc(C)nc2c1ccc1c2ccc2c(NC(C)CCCN(CC)CC)cc(C)nc21 (configuration not stated),T/C,"dose: 12.5 mg/kg/injection, schedule: Q01DX009 (ip), vehicle: distilled water + Tween-80",118 % of control
same,T/C,"dose: 25.0 mg/kg/injection, schedule: Q01DX009 (ip), vehicle: distilled water + Tween-80",111 % of control
CC(C)C(C(=O)O)N(C(=O)CN)C(=O)Cc1ccccc1 (configuration not stated),T/C,[2],95 % of control
same,T/C,[3],93 % of control
same,T/C,[4],93 % of control
